Test results reported in ChEMBL document CHEMBL3259797, “Radiosyntheses and in vivo evaluation of carbon-11 PET tracers for PDE10A in the brain of rodent and nonhuman primate” (Bioorg Med Chem, 2014).

Assays:
[1] = tested on: Lung; assay: Biodistribution in Sprague-Dawley rat lung at 14.8 to 18.5 MBq, iv measured at 30 mins post-injection by gamma counting analysis; type: ADME, organism-based; settings: in vivo, 0.5 h
[2] = tested on: Plasma; assay: Metabolic stability in iv dosed cynomolgus monkey plasma protein pellet under deproteinated condition assessed as compound remaining measured at 5 to 60 mins by HPLC analysis; type: ADME, organism-based, Macaca fascicularis; settings: in vivo
[3] = tested on: Heart; assay: Biodistribution in Sprague-Dawley rat heart at 14.8 to 18.5 MBq, iv measured at 5 mins post-injection by gamma counting analysis; type: ADME, organism-based; settings: in vivo
[4] = tested on: Striatum; assay: Biodistribution in Sprague-Dawley rat striatum at 14.8 to 18.5 MBq, iv treated with MP-10 for 5 mins prior to compound administration measured at 30 mins post-injection by gamma counting analysis; type: ADME, organism-based; settings: in vivo, 0.5 h
[5] = tested on: Lung; assay: Biodistribution in Sprague-Dawley rat lung at 14.8 to 18.5 MBq, iv measured at 60 mins post-injection by gamma counting analysis; type: ADME, organism-based; settings: in vivo, 1 h
[6] = tested on: Kidney; assay: Biodistribution in Sprague-Dawley rat kidney at 14.8 to 18.5 MBq, iv measured at 30 mins post-injection by gamma counting analysis; type: ADME, organism-based; settings: in vivo, 0.5 h
[7] = tested on: Kidney; assay: Biodistribution in Sprague-Dawley rat kidney at 14.8 to 18.5 MBq, iv measured at 5 mins post-injection by gamma counting analysis; type: ADME, organism-based; settings: in vivo
[8] = tested on: Liver; assay: Biodistribution in Sprague-Dawley rat liver at 14.8 to 18.5 MBq, iv treated with MP-10 for 5 mins prior to compound administration measured at 30 mins post-injection by gamma counting analysis; type: ADME, organism-based; settings: in vivo, 0.5 h
[9] = tested on: Brain; assay: Biodistribution in Sprague-Dawley rat brain at 14.8 to 18.5 MBq, iv measured at 5 mins post-injection by gamma counting analysis; type: ADME, organism-based; settings: in vivo
[10] = tested on: Blood; assay: Biodistribution in Sprague-Dawley rat blood at 14.8 to 18.5 MBq, iv measured at 30 mins post-injection by gamma counting analysis; type: ADME, organism-based; settings: in vivo, 0.5 h
[11] = Metabolic stability in iv dosed cynomolgus monkey RBC assessed as compound remaining measured at 5 to 60 mins by HPLC analysis; type: ADME, organism-based, Macaca fascicularis, Erythrocyte; settings: in vivo
[12] = tested on: Rattus norvegicus; assay: Biodistribution in Sprague-Dawley rat fat at 14.8 to 18.5 MBq, iv treated with MP-10 for 5 mins prior to compound administration measured at 30 mins post-injection by gamma counting analysis; type: ADME, organism-based, Adipose tissue; settings: in vivo, 0.5 h
[13] = Biodistribution in cynomolgus monkey hippocampus at 260 to 370 MBq, iv measured at 20 to 100 mins post-injection by microPET analysis; type: ADME, organism-based, Macaca fascicularis; settings: in vivo
[14] = tested on: Plasma; assay: Metabolic stability in iv dosed cynomolgus monkey plasma supernatant under deproteinated condition assessed as compound remaining measured at 5 to 60 mins by HPLC analysis; type: ADME, organism-based, Macaca fascicularis; settings: in vivo
[15] = tested on: Rattus norvegicus; assay: Biodistribution in Sprague-Dawley rat fat at 14.8 to 18.5 MBq, iv measured at 60 mins post-injection by gamma counting analysis; type: ADME, organism-based, Adipose tissue; settings: in vivo, 1 h
[16] = tested on: Lung; assay: Biodistribution in Sprague-Dawley rat lung at 14.8 to 18.5 MBq, iv treated with MP-10 for 5 mins prior to compound administration measured at 30 mins post-injection by gamma counting analysis; type: ADME, organism-based; settings: in vivo, 0.5 h
[17] = Biodistribution in cynomolgus monkey temporal cortex at 260 to 370 MBq, iv measured at 20 to 100 mins post-injection by microPET analysis; type: ADME, organism-based, Macaca fascicularis; settings: in vivo
[18] = tested on: Cerebellum; assay: Biodistribution in Sprague-Dawley rat cerebellum at 14.8 to 18.5 MBq, iv measured at 60 mins post-injection by gamma counting analysis; type: ADME, organism-based; settings: in vivo, 1 h
[19] = tested on: Frontal cortex; assay: Biodistribution in cynomolgus monkey frontal cortex at 260 to 370 MBq, iv measured at 20 to 100 mins post-injection by microPET analysis; type: ADME, organism-based, Macaca fascicularis; settings: in vivo
[20] = tested on: Muscle tissue; assay: Biodistribution in Sprague-Dawley rat muscle at 14.8 to 18.5 MBq, iv measured at 30 mins post-injection by gamma counting analysis; type: ADME, organism-based; settings: in vivo, 0.5 h
[21] = Biodistribution in cynomolgus monkey cerebellum at 260 to 370 MBq, iv measured at 20 to 100 mins post-injection by microPET analysis; type: ADME, organism-based, Macaca fascicularis; settings: in vivo
[22] = tested on: Lung; assay: Biodistribution in Sprague-Dawley rat lung at 14.8 to 18.5 MBq, iv measured at 5 mins post-injection by gamma counting analysis; type: ADME, organism-based; settings: in vivo
[23] = tested on: Cerebellum; assay: Biodistribution in Sprague-Dawley rat cerebellum at 14.8 to 18.5 MBq, iv measured at 30 mins post-injection by gamma counting analysis; type: ADME, organism-based; settings: in vivo, 0.5 h
[24] = tested on: Blood; assay: Biodistribution in Sprague-Dawley rat blood at 14.8 to 18.5 MBq, iv measured at 60 mins post-injection by gamma counting analysis; type: ADME, organism-based; settings: in vivo, 1 h
[25] = tested on: Nucleic Acid; assay: Ratio of drug level in striatum to cerebellum in Sprague-Dawley rat at 14.8 to 18.5 MBq, iv measured at 30 mins post-injection by gamma counting analysis; type: ADME, organism-based; settings: in vivo, 0.5 h
[26] = tested on: Blood; assay: Biodistribution in Sprague-Dawley rat blood at 14.8 to 18.5 MBq, iv measured at 5 mins post-injection by gamma counting analysis; type: ADME, organism-based; settings: in vivo
[27] = tested on: Cerebellum; assay: Biodistribution in Sprague-Dawley rat cerebellum at 14.8 to 18.5 MBq, iv treated with MP-10 for 5 mins prior to compound administration measured at 30 mins post-injection by gamma counting analysis; type: ADME, organism-based; settings: in vivo, 0.5 h
[28] = tested on: Striatum; assay: Biodistribution in Sprague-Dawley rat striatum at 14.8 to 18.5 MBq, iv measured at 5 mins post-injection by gamma counting analysis; type: ADME, organism-based; settings: in vivo
[29] = tested on: Brain; assay: Biodistribution in Sprague-Dawley rat brain at 14.8 to 18.5 MBq, iv measured at 60 mins post-injection by gamma counting analysis; type: ADME, organism-based; settings: in vivo, 1 h
[30] = tested on: Cerebellum; assay: Biodistribution in Sprague-Dawley rat cerebellum at 14.8 to 18.5 MBq, iv measured at 5 mins post-injection by gamma counting analysis; type: ADME, organism-based; settings: in vivo
[31] = tested on: Muscle tissue; assay: Biodistribution in Sprague-Dawley rat muscle at 14.8 to 18.5 MBq, iv measured at 60 mins post-injection by gamma counting analysis; type: ADME, organism-based; settings: in vivo, 1 h
[32] = tested on: Striatum; assay: Biodistribution in Sprague-Dawley rat striatum at 14.8 to 18.5 MBq, iv measured at 30 mins post-injection by gamma counting analysis; type: ADME, organism-based; settings: in vivo, 0.5 h
[33] = tested on: Rattus norvegicus; assay: Biodistribution in Sprague-Dawley rat fat at 14.8 to 18.5 MBq, iv measured at 30 mins post-injection by gamma counting analysis; type: ADME, organism-based, Adipose tissue; settings: in vivo, 0.5 h
[34] = tested on: Brain; assay: Biodistribution in Sprague-Dawley rat brain at 14.8 to 18.5 MBq, iv treated with MP-10 for 5 mins prior to compound administration measured at 30 mins post-injection by gamma counting analysis; type: ADME, organism-based; settings: in vivo, 0.5 h
[35] = tested on: Brain; assay: Biodistribution in Sprague-Dawley rat brain at 14.8 to 18.5 MBq, iv measured at 30 mins post-injection by gamma counting analysis; type: ADME, organism-based; settings: in vivo, 0.5 h
[36] = tested on: Muscle tissue; assay: Biodistribution in Sprague-Dawley rat muscle at 14.8 to 18.5 MBq, iv measured at 5 mins post-injection by gamma counting analysis; type: ADME, organism-based; settings: in vivo
[37] = tested on: Heart; assay: Biodistribution in Sprague-Dawley rat heart at 14.8 to 18.5 MBq, iv measured at 30 mins post-injection by gamma counting analysis; type: ADME, organism-based; settings: in vivo, 0.5 h
[38] = Biodistribution in cynomolgus monkey white matter at 260 to 370 MBq, iv measured at 20 to 100 mins post-injection by microPET analysis; type: ADME, organism-based, Macaca fascicularis; settings: in vivo
[39] = tested on: Plasma; assay: Metabolic stability in iv dosed cynomolgus monkey plasma assessed as compound remaining measured at 5 to 60 mins by HPLC analysis; type: ADME, organism-based, Macaca fascicularis; settings: in vivo

SMILES	Drug uptake [1] [% ID/g]	Stability [2] [%]	Drug uptake [3] [% ID/g]	Drug uptake [4] [% ID/g]	Drug uptake [5] [% ID/g]	Drug uptake [6] [% ID/g]	Drug uptake [7] [% ID/g]	Drug uptake [8] [% ID/g]	Drug uptake [9] [% ID/g]	Drug uptake [10] [% ID/g]	Stability [11] [%]	Drug uptake [12] [% ID/g]	Drug uptake [13]	Stability [14] [%]	Drug uptake [15] [% ID/g]	Drug uptake [16] [% ID/g]	Drug uptake [17]	Drug uptake [18] [% ID/g]	Drug uptake [19]	Drug uptake [20] [% ID/g]	further results
Cn1cc(-c2ccncc2)c(-c2ccc(OCc3cc(O[11CH3])c4ccccc4n3)cc2)n1	0.233	5	0.464	0.175	0.163	1.294	2.34	4.723	0.21	0.192	25	0.697	Active	88	0.278	0.362	Active	0.046	Active	0.133	Drug uptake [21]: Active; Drug uptake [22]: 0.89 % ID/g; Drug uptake [23]: 0.066 % ID/g; Drug uptake [24]: 0.152 % ID/g; Ratio [25]: 3.8; Drug uptake [26]: 0.268 % ID/g; Drug uptake [27]: 0.112 % ID/g; Drug uptake [28]: 0.352 % ID/g; Drug uptake [29]: 0.057 % ID/g; Drug uptake [30]: 0.215 % ID/g; Drug uptake [31]: 0.084 % ID/g; Drug uptake [32]: 0.23 % ID/g; Drug uptake [33]: 0.371 % ID/g; Drug uptake [34]: 0.114 % ID/g; Drug uptake [35]: 0.087 % ID/g; Drug uptake [36]: 0.258 % ID/g; Drug uptake [37]: 0.187 % ID/g; Drug uptake [38]: Active; Stability [39]: 65%
Cn1cc(-c2ccncc2)c(-c2ccc(OCc3nc4ccccc4cc3O[11CH3])cc2)n1	0.408	5	0.733	0.294	0.299	1.647	4.354	5.781	0.231	0.321	25	1.353	Active	88	0.5	0.404	Active	0.064	Active	0.244	Drug uptake [21]: Active; Drug uptake [22]: 1.602 % ID/g; Drug uptake [23]: 0.097 % ID/g; Drug uptake [24]: 0.275 % ID/g; Ratio [25]: 4.6; Drug uptake [26]: 0.679 % ID/g; Drug uptake [27]: 0.119 % ID/g; Drug uptake [28]: 0.488 % ID/g; Drug uptake [29]: 0.095 % ID/g; Drug uptake [30]: 0.229 % ID/g; Drug uptake [31]: 0.142 % ID/g; Drug uptake [32]: 0.452 % ID/g; Drug uptake [33]: 0.851 % ID/g; Drug uptake [34]: 0.128 % ID/g; Drug uptake [35]: 0.133 % ID/g; Drug uptake [36]: 0.412 % ID/g; Drug uptake [37]: 0.296 % ID/g; Drug uptake [38]: Active; Stability [39]: 65%
